Data on 27 molecules can be found in PubChem BioAssay (NCI).

Holding throughout (test): NCI anticancer screen, dose series, 48 h
In assay [1] the test system is SNB-75 CNS.
The subject of assay [2] is HOP-92 NSCLC.
Assay [3] deals with NCI-H226 lung.
The test system of assay [4] is LOX IMVI melanoma.
The test system of assay [5] is SF-539 CNS.
Assay [6] deals with KM12 colon.
In assay [7] the test system is UACC-62 melanoma.
Assay [8] has as its system SW-620 colon.
Assay [9] concerns OVCAR-5 ovarian.
Assay [10] has as its system SK-MEL-2 melanoma.

Where “and” joins values, the source holds several entries; their conditions need not be identical. Identical values can stand only once.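 Values below derive from 48-hour exposures of cells grown in 96-well plates, with endpoints linearly interpolated between the two concentrations bracketing the appropriate inhibition level. Here, GI50 denotes the concentration required for 50% inhibition of growth. TGI is the concentration that stops growth completely.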 A value given as a limit tells only on which side of the number the result lay.

For the molecule `O=C(O)c1[nH]c(C(=O)O)c(CC(F)(F)C(F)(F)C(F)(F)F)c1CC(F)(F)C(F)(F)C(F)(F)F`, the TGI in assay [1], in assay [2], in assay [3], in [4], in assay [5] and in assay [6] was above 100 µM throughout. The TGI in assay [7], in assay [8] and in [9] was above 100 µM in each case.

Take `COC(=O)C12C3C4C1C1C2C3C41I` (stereo not given): the TGI in assay [2], in assay [3], in assay [5], in [7], in [8] and in assay [9] was above 100 µM each time.

Turning to `O=C(O)c1nnsc1COCc1ccccc1`, the TGI in assay [1], in [2], in assay [4], in [5], in [6] and in assay [7] was above 100 µM throughout. Moreover, the TGI in assay [8], in assay [9] and in assay [10] was above 100 µM throughout.

For `Cn1c(=O)c2c(nc3n2CCC(=O)N3)n(C)c1=O`, the TGI in assay [2], in assay [3], in assay [4], in assay [5], in [6] and in assay [7] was above 100 µM throughout. Further, the TGI in assay [8], in [9] and in assay [10] was above 100 µM throughout.

On to `NC(N)=NNC(=O)C(=O)O`, for which the TGI in assay [1], in assay [3], in assay [4], in [5], in assay [6] and in assay [7] was above 100 µM in each case. In addition, the TGI in [8], in assay [9] and in assay [10] was above 100 µM throughout.

With `CCOC(=O)/C=C/c1ccc(C(=O)OCC)[nH]1`, the GI50 is 2.82 µM in assay [1]; 15.4 µM in [3]; 5.29 µM in assay [4]; 5.91 µM in [5]; 0.601 µM in [6]; 5.23 µM in assay [7]. Besides, the values for the GI50 in assay [8] and in assay [9] were 1.29 µM and 19.5 µM, respectively. Further, the TGI in [1] is 35.9 µM; in [3], above 100 µM; in [4], above 100 µM; in [5] it was 42.5 µM; in [6] it was 92.6 µM; in assay [7], above 100 µM. Further, the TGI in assay [8] and in [9] was above 100 µM each time.

Consider `NC(N)=N/N=C/c1c(-c2cc(Cl)sc2Cl)nc2n1CCS2`, for which the GI50 in assay [3] was 8.31 µM; in [4], 8.33 µM; in assay [5], 7.43 µM; in [6], 8.33 µM; in assay [7], 8.62 µM; in assay [8], 10.5 µM. The GI50 was 7.87 µM in assay [9] and 22.6 µM in [10]. Also, the TGI in assay [3] came out at 16.8 µM; in assay [4], 15.8 µM; in assay [5] it was 15.2 µM; in assay [6], 16.1 µM; in assay [7] it was 16 µM; in assay [8] it was 20.5 µM. Also, the TGI is 14.7 µM in assay [9] and above 50 µM in [10].

As to `COc1cc2ccc3c4cc(OC)c(OCc5ccccc5)cc4cnc3c2cc1OC`, the TGI in assay [1], in [6], in assay [7], in assay [8], in [9] and in [10] was above 100 µM each time.

For `O=C1OCC2=Nc3cccc4cccc(c34)N12`, the TGI in [1], in [3], in assay [4], in assay [5], in assay [6] and in [7] was above 100 µM in each case. Also, in assay [8], the TGI is above 100 µM.

On to `Cc1ccc(N2C(=O)C(Cl)=C(Nc3cccc(O)c3)C2=O)cc1Cl`, for which the GI50 in assay [2] was 15.7 µM; in [4], 16.4 µM; in [6], 17 µM; in [7], 17 µM; in assay [9] it was 16.5 µM; in [10] it was 38 µM. Further, the TGI in [2] is 37.6 µM; in assay [4] it was 33.2 µM; in assay [6] it was 31.6 µM; in assay [7], 32.6 µM; in assay [9], 31.9 µM; in [10] it was above 100 µM.

As for `COc1ccc2c(C3(O)CCNCC3)c[nH]c2c1`, the TGI in [1], in [2], in assay [4], in [5], in assay [6] and in assay [7] was above 100 µM throughout. The TGI in assay [8], in assay [9] and in assay [10] was above 100 µM in each case.

As to `c1cncc(C2c3[nH]c4ccccc4c3CCN2CCN2CCCCC2)c1` (stereo not given), the TGI in assay [1], in [2], in assay [4], in assay [5], in assay [6] and in assay [7] was above 100 µM in each case. For the same molecule, the TGI in [8] and in [9] was above 100 µM throughout.

Regarding `CC(O)C(NC(=O)C(CS)NC(=O)C(CO)NC(=O)C(CCCCN)NC(=O)C(Cc1c[nH]c2ccccc12)NC(=O)C(Cc1ccc(O)cc1)NC(=O)C(CS)NC(=O)C(N)Cc1ccccc1)C(N)=O` (stereo not given), the TGI in assay [1] is 62.5 µM; in assay [3], above 25 µM; in assay [4], above 25 µM; in [5], > 25 µM and 68.9 µM; in [6], > 25 µM and 58 µM; in assay [7], > 25 µM and 57.8 µM. The TGI in assay [8] is above 25 µM; in [9] it was above 25 µM; in assay [10], > 25 µM and 49.5 µM. For the same molecule, the GI50 in assay [10] is 22 µM.

For the molecule `Cn1cc(NC(=O)c2cc(NC(=O)CCCCCC(=O)Nc3cc(C(=O)Nc4cc(C(=O)NCCC(=N)N)n(C)c4)n(C)c3)cn2C)cc1C(=O)NCCC(=N)N`, the TGI in [1], in [2], in assay [4], in assay [5], in assay [6] and in assay [7] was above 100 µM throughout. The TGI in [8] and in [9] was above 100 µM throughout.

Consider `COc1ccc([N+](=O)[O-])c2c(NCC(O)CO)ccnc12` (stereo not given), for which the TGI in [1] is above 100 µM; in [4], above 100 µM; in [5], 90.1 µM; in assay [6] it was above 100 µM; in assay [7] it was 58.9 µM; in assay [8] it was above 100 µM. In addition, the TGI in [9] is above 100 µM; in assay [10], 71.9 µM.

`Cc1ccc(S(=O)(=O)ON/N=C2/C3OC3[C@@H]3CCCC[C@H]23)cc1` (stereo not given in full): the TGI in assay [1], in [2], in assay [3], in [5], in [6] and in assay [7] was above 100 µM in each case. Also, the TGI in [8] and in [10] was above 100 µM throughout.

Turning to `OC1CCC(Oc2cccc3cnc(Nc4ccc5nc[nH]c5c4)nc23)CC1` (stereo not given), the GI50 in assay [1] was 0.12 µM; in [2], 0.467 µM; in assay [4] it was 0.231 µM; in assay [5] it was 0.215 µM; in assay [6] it was 0.23 µM; in assay [7], 0.573 µM. For the same molecule, the values for the GI50 in [8], in assay [9] and in assay [10] were 0.407 µM, 0.327 µM and 0.873 µM, respectively. In addition, the TGI is 2.21 µM in assay [1]; 29.4 µM in assay [2]; 11.4 µM in assay [4]; 0.708 µM in [5]; 11.9 µM in assay [6]; 7.26 µM in assay [7]. The TGI in assay [8] was 16.5 µM; in assay [9], 30.7 µM; in assay [10], 2.93 µM.

In the case of `CN(C)CCNC(=O)c1cccc(CO)c1[N+](=O)[O-]`, the TGI in assay [1], in [3], in assay [5], in [6], in [7] and in assay [8] was above 100 µM in each case. For the same molecule, the TGI in assay [9] and in [10] was above 100 µM in each case.

For the molecule `O=C1c2cccc3cc([N+](=O)[O-])cc(c23)C(=O)N1CCCN1CCN(CCCN2C(=O)c3cccc4cc([N+](=O)[O-])cc(c34)C2=O)CC1`, the TGI in assay [1] was 9.54 µM; in assay [2], 5.2 µM; in assay [3], 1.37 µM; in assay [5] it was 12 µM; in [7], 1.65 µM; in assay [8], above 100 µM. Further, the figures for the TGI in [9] and in assay [10] were above 100 µM and 5.34 µM, respectively.

Consider `CC(C)(C)N=CN1CCC(C(c2ccccc2)c2ccccc2)CC1`, for which the TGI in assay [1], in [2], in [4], in assay [5], in [6] and in [7] was above 100 µM each time. The TGI in [8], in [9] and in assay [10] was above 100 µM each time.

Turning to `COc1ccc(/C=[N+](\[O-])[C@H](COCc2ccccc2)c2ccccc2)cc1`, the TGI in assay [1], in assay [2], in [4], in assay [5], in [6] and in assay [8] was above 100 µM in each case. Moreover, the TGI in assay [9] and in [10] was above 100 µM throughout.

As for `C=C1C(=O)O[C@H]2[C@H]1CC/C(COC(=O)c1ccc(C(=O)O)s1)=C\CC[C@@]1(C)O[C@@H]21`, the GI50 in assay [2] was 1.61 µM; in [3], 12.2 µM; in assay [4] it was 1.49 µM; in [5], 1.62 µM; in assay [6], 2.82 µM; in assay [7], 1.65 µM. The GI50 in [8] is 1.61 µM; in [9] it was 3.05 µM; in assay [10], 2.29 µM. The TGI in assay [2] came out at 3.45 µM; in [3], 30.5 µM; in [4], 3.08 µM; in assay [5], 3.04 µM; in assay [6], 8.46 µM; in assay [7], 3.23 µM. In addition, the TGI came to 3.79 µM in assay [8], 10.1 µM in assay [9] and 5.22 µM in [10].

For `COC(=O)/C(=N/NC(C)(C)C)C(C(=O)C=C(C)C)C(=O)C(=O)Nc1ccc(Cl)cc1C` (stereo not given), the TGI in [3], in assay [5], in [6], in [7], in [8] and in assay [9] was above 100 µM each time. Further, the TGI in assay [10] is above 100 µM.

Consider `CCCN(CCC)c1c([N+](=O)[O-])cc(S(N)(=O)=O)cc1[N+](=O)[O-]`, for which the TGI came to 32.4 µM in assay [1]; 42.7 µM in assay [3]; 31.6 µM in assay [4]; 35.9 µM in assay [5]; 34.3 µM in assay [6]; 32.8 µM in [7]. For the same molecule, the TGI in [8] was 36 µM; in assay [9], 37.9 µM; in assay [10], 30.5 µM.

For the molecule `CCOC(=O)C(=O)Nc1c(C)cccc1CC`, the TGI in assay [2], in [3], in assay [4], in assay [5], in assay [6] and in assay [7] was above 100 µM in each case. The TGI in [8], in assay [9] and in assay [10] was above 100 µM throughout.

Turning to `COC(=O)c1ccc(OCc2ccc3oc(=O)c(-c4ccccc4)nc3c2)cc1`, the TGI in [1], in assay [3], in assay [4], in assay [5], in assay [6] and in [8] was above 100 µM each time. For the same molecule, the TGI in assay [9] and in [10] was above 100 µM in each case.

As to `C=CCN(N=O)C(=O)N(CCC)CCCC(NC(C)=O)C(=O)NCc1ccccc1` (stereo not given), the TGI in [1], in assay [4], in [5], in [6], in [7] and in assay [8] was above 100 µM each time. Besides, the TGI in assay [9] and in [10] was above 100 µM throughout.
